Results reported in patent US20120070377A1, “COMPOUNDS AND BIOLOGICAL MATERIALS AND USES THEREOF” (priority 2009, published 2012).

Assays:
SKOV3 = experiment: In vitro phototoxicity (MTS cell titre assay after 670 nm laser light), Example 5; format: cell-based, human; conditions: Homo sapiens, SK-OV-3; free photosensitisers; 2 hrs incubation, 670 nm laser 0.5 W 10 s, MTS after 48 h
Experimental: (§1) Two different human-derived tumour cell lines: SKOV3 and KB were obtained from the European Collection of Cell Cultures (ECACC) and cultured in Dulbecco's modified Eagle's medium (DMEM) with 10% foetal bovine serum, penicillin and streptomycin antibiotics (1%) and passaged when 70-90% confluent in 75 cm^2 flasks. The cells were maintained at 37° C. in a humidified 5% CO2 atmosphere.
(§2) Cells were trypsinised and seeded at 2×10^3 cells/well for KB and 3×10^3 cells/well for SKOV3 into 96-well plates and incubated over two nights for KB and overnight for SKOV3 at 37° C. and 5% CO2. The cells were then washed once in phenol red free DMEM and appropriately diluted photosensitiser solution or photo-immunoconjugate (in DMEM, 2% DMSO) was added to the appropriate wells under subdued lighting. DMEM or Triton X-100 (1%) were added to control wells. After 2 hrs incubation in the dark at 37° C., 5% CO2, cells were washed three times with PBS and 100 μl of DMEM was added to each well.
(§3) Wells were exposed to light from a High Powered-Devices 670 nm laser used at 0.5 W for 10 s. Controls included wells with photosensitiser added and no exposure to light, or DMEM added and exposure to light as well as Triton X-100 (1%) with or without light exposure. Cells that had no photosensitiser added and no exposure to light were included as overall controls. Cells were incubated in the dark at 37° C., 5% CO2 for 48 h after which time, a cell titre assay was performed according to the manufacturer's instructions. The Promega Cell Titre-96 system was used which involves the conversion by live cells of a tetrazolium compound (MTS) into a formazan dye which is measurable by its absorbance at 490 nm.

KB = experiment: as above; format: cell-based, human; conditions: Homo sapiens, KB; free photosensitisers; 2 hrs incubation, 670 nm laser 0.5 W 10 s, MTS after 48 h
Experimental: as §1, §2, §3

[1] = Skin photosensitivity in a murine model; format: in vivo; conditions: laser on the skin after 1 hour, monitored over 4 days, scale of 1-4
Experimental: FIG. 24: Skin photosensitivity of Foscan compared to compound II. Photosensitisers were administered at t=0 hrs and a laser shone on the skin after 1 hour. The skin reaction was followed over time and the results were plotted according to the scale shown.
Skin photosensitivity is an important issue to be resolved in PDT. […] In a murine model, Foscan was administered at clinical doses (ref 109) and compared to compound 11 and a photo-immunoconjugate of compound 11. Skin photosensitivity was monitored over 4 days by observation according to a scale of 1-4 (FIG. 24).

[2] = Biodistribution and blood clearance of 125I-radiolabelled photosensitisers and PICs in SKOV3 tumour mice; format: in vivo, BALB/c nude mice; conditions: mouse, in vivo, iv
Experimental: 0.1 mg of photosensitiser was dissolved in 0.5 ml PBS. Radiolabelled Iodine (Na^125I, ICN chemicals) was added to 0.1 ml of PBS in Iodogen-coated tubes (Pierce chemicals) and allowed to activate. The activated iodine-125 was transferred to the photosensitiser and allowed to react for 5-10 minutes at room temperature. The radiolabelled photosensitiser was separated from free iodine on a mini silica gel column eluting with 100% PBS to remove the iodinating agent followed by a gradual switch from 10% MeOH/PBS to 100% MeOH with the radiolabelled photosenstiser eluting with 10% MeOH/chloroform. The radiolabelled solutions of the photosensitiser was allowed to air-dry and re-suspended in PBS containing 2% DMSO.
Female BALB/c nude mice (aged 6-8 weeks old) were implanted with 10^7 SKOV3 tumour cells mixed in 0.1 ml of ice-cold matrigel subcutaneously and the tumours were allowed to grow for 3-6 weeks as xenografts. Mice were maintained in IVC cages (individually-vented cages) in a clean room. Samples were injected in a volume of 0.1 ml, intravenously via the lateral tail vein and the mice were maintained in low light with full food and water (irradiated). At various time points (1-24 hr), mice were culled by cardiac puncture under terminal anesthesia and blood and tissues collected. All the tissues were counted for radioactivity by gamma counting and weighed.
The results are shown as a percentage of radioactive material injected per gram of tissue.
The PS (PPa and PPa-PEG) were chemically coupled to C6 scFv, radiolabelled with iodogen as before, but dialysed against 3×5 L of PBS to remove the free iodine and injected into BALB/c nude mice with SKOV3 tumours as above. Tissues were dissected and counted as above.

skin photosensitivity [1]: little or no skin sensitivity
Structure (SMILES): CCC1=C(C)c2cc3[nH]c(c(C)c3CC)c(C#CCCCC(=O)ON3C(=O)CCC3=O)c3nc(c4c5[nH]c(cc1n2)c(C)c5C(=O)C4)[C@@H](CCC(=O)OCc1cc(OCCOCCOCCOC)c(OCCOCCOCCOC)c(OCCOCCOCCOC)c1)[C@@H]3C [compound 11, Meso 5-Ethynylhexanoyl succinimido ester pyropheophorbide a-3,4,5-(triethylene glycolmonomethylether) benzyl ester]
IC50 (SKOV3): 1.1 µM | IC50 (KB): 1.2 ± 0.5 µM | blood clearance [2]: faster than PPa
